Reference: US8598344B2, “CDKI pathway inhibitors and uses thereof” (Senex Biotechnology, priority 2009, dated 2013)

Legend:
Experiment in all cases: KinomeScan competition binding assay
Details in all cases: 10 μM compound
CSNK1G2 = target: T1, CSNK1G2 (Homo sapiens, UniProt P78368)
T1 construct: purchased KinomeScan, a division of Ambit Biosciences
Description: (§1) This similarity led us to test SNX14 for the ability to inhibit 285 kinases, using the services of KinaseProfiler of Millipore Corporation (285 kinases). […] The KINOMEscan assay has been described in detail in Fabian et al., Nat. Biotechnol. 23: 329 (2005) and Karaman et al., Nat. Biotechnol. 26: 127 (2008).
(§2) The KinomeScan assay is based on a competition binding assay that quantitatively measures the ability of a compound to compete with an immobilized, ATP site directed ligand. The assay is performed by combining three components: DNA-tagged kinase; immobilized ligand; and a test compound. The ability of the test compound to compete with the immobilized ligand is measured via quantitative PCR of the DNA tag. […] The CDKs tested by Millipore for inhibition with SNX14 included CDK1, CDK2, CDK3, CDK5, CDK7 and CDK9; none of these were inhibited to less than 49 percent of control (POC) activity. The CDKs tested by KinomeScan for the effect of Compound 1 included CDK2, CDK3, CDK4, CDK5, CDK7, CDK8, CDK9 and CDK19; aside from CDK8 and CDK19, the strongest inhibited CDK was CDK7 (33% POC binding). To determine the inhibition of which kinases correlates with the biological activity of SNX2-class compounds, we tested eight additional compounds of the SNX2 family, which gave different IC50 values in the cellular assays, for the ability to affect 24 kinases that were most susceptible to compound 1, through the services of KinomeScan. […] We have also determined the binding constant (Kd) for SNX14, compound 1, compound 20, compound 26, compound 43 and compound 14 in kinase assays for CDK8 and CDK19 (Table 1).

EGFR (G719C) = target: T2, EGFR (G719C) (Homo sapiens, UniProt P00533, G719C)
T2 construct: purchased KinomeScan, a division of Ambit Biosciences
Description: as §1, §2

YSK4 = target: T3, YSK4 (Homo sapiens, UniProt Q56UN5)
T3 construct: purchased KinomeScan, a division of Ambit Biosciences
T3 sequence (Q56UN5 1-1328): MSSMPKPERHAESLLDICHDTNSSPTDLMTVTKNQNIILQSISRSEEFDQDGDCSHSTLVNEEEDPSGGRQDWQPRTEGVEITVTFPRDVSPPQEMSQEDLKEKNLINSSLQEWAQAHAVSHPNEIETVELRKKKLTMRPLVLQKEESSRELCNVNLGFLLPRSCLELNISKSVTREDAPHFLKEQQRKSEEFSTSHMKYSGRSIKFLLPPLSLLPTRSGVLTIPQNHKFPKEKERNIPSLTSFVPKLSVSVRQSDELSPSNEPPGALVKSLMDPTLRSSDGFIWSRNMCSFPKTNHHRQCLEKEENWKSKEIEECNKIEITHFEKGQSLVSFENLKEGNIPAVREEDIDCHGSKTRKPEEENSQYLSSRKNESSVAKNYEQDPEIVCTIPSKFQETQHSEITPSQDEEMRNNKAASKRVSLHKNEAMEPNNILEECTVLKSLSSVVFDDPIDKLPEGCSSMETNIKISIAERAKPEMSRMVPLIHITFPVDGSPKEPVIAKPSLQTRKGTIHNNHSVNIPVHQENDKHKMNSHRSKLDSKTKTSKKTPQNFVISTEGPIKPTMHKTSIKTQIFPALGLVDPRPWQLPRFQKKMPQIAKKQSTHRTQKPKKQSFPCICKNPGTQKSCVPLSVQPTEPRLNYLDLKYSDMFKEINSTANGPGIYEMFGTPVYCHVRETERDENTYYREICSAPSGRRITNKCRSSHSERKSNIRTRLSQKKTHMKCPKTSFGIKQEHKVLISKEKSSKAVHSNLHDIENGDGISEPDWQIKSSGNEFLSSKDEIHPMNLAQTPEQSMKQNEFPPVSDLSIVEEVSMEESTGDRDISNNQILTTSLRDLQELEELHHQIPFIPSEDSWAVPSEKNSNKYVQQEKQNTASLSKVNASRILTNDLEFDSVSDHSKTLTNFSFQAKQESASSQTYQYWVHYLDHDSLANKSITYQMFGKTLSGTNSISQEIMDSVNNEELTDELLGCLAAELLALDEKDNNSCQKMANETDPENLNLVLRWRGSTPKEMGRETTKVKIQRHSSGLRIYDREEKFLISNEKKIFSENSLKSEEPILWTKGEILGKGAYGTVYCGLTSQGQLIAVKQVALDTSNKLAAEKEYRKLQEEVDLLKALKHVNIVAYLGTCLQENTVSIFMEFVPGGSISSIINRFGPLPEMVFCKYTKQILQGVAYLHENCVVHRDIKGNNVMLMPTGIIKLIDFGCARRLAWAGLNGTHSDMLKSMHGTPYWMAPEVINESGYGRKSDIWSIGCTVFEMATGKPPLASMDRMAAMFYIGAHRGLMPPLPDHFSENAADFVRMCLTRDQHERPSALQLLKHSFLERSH
Description: as §1, §2

CLK4 = target: T4, CLK4 (Homo sapiens, UniProt Q9HAZ1)
T4 construct: purchased KinomeScan, a division of Ambit Biosciences
T4 sequence (Q9HAZ1 whole entry): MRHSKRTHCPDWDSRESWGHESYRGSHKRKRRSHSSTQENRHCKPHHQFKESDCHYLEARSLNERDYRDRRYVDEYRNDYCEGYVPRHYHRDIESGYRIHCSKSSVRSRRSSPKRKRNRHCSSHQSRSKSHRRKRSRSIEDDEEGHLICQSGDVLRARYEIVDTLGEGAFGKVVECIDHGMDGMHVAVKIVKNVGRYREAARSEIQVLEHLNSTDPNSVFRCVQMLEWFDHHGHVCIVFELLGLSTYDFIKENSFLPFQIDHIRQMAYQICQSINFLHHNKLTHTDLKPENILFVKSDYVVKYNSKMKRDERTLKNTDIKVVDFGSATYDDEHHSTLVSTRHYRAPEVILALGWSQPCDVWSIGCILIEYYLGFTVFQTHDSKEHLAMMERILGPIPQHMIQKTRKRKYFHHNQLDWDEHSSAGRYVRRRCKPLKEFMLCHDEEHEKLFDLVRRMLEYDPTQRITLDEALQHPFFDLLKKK
Description: as §1, §2

T1 sequence (P78368 whole entry): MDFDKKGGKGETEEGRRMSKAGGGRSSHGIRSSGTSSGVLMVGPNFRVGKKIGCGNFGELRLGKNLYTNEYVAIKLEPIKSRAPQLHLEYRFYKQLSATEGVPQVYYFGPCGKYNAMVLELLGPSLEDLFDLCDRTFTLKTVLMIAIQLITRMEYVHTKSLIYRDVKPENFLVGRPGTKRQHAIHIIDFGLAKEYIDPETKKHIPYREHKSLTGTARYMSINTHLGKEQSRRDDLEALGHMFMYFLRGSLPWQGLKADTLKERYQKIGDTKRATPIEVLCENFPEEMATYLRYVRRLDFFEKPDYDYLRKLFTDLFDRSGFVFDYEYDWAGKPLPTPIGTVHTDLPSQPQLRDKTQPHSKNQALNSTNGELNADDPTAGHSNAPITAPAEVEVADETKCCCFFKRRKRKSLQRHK

SMILES | POC ligand binding, CSNK1G2 (CSNK1G2) | POC ligand binding, EGFR (G719C) (EGFR (G719C)) | POC ligand binding, YSK4 (YSK4) | POC ligand binding, CLK4 (CLK4) | POC ligand binding, CSNK1G2 (CSNK1G2; 10 µM) | POC ligand binding, EGFR (G719C) (EGFR (G719C); 10 µM) | POC ligand binding, YSK4 (YSK4; 10 µM) | POC ligand binding, CLK4 (CLK4; 10 µM)
N#Cc1ccc2ncnc(NCCc3ccc4ccccc4c3)c2c1 [compound 26] | 57 POC | 68 POC | 44 POC | 26 POC |  |  |  | 
N#Cc1ccc2ncnc(NCc3ccc4ccccc4c3)c2c1 [compound 14] |  |  |  |  | 43 POC | 92 POC | 21 POC | 16 POC
N#Cc1ccc2ncnc(NCc3ccc4ccccc4c3)c2c1 [compound 43] |  |  |  |  | 53 POC | 53 POC | 29 POC | 9.6 POC
CCCNc1ncnc2ccc(N3CCOCC3)cc12 [compound 46] | 55 POC | 61 POC | 91 POC | 24 POC |  |  |  | 
N#Cc1ccc2ncnc(NCc3ccc(Cl)cc3)c2c1 [compound 20] | 62 POC | 34 POC | 31 POC | 11 POC |  |  |  | 
CC(C)CNc1ncnc2ccc(C(F)(F)F)cc12 [compound 45] | 53 POC | 59 POC | 41 POC | 7.8 POC |  |  |  | 
COc1ccc2ncnc(NCCc3ccccc3)c2c1 [compound 44] | 80 POC | 0.85 POC | 39 POC | 17 POC |  |  |  | 
N#Cc1ccc2ncnc(NCCc3ccccc3)c2c1 [compound 1] | 16 POC | 13 POC | 5.4 POC | 8 POC |  |  |  | 
